According to patent US20250326718A1, “4-PHENYL-2-PYRROLIDINONES AND METHODS OF USING THEREOF” (North Carolina State University, priority 2022, published 2025):
Values after ≈ are worked out from the molar mass of the structure shown. Like-named read-outs stand apart in the source and are kept apart here.

Legend:
Format in all cases: cell-based
[1] = tested on: S. aureus 29213; assay: Broth microdilution MIC, S. aureus 29213; details: Staphylococcus aureus
[2] = tested on: MRSA (ATCC 33591); assay: Broth microdilution MIC, MRSA ATCC 33591; details: Staphylococcus aureus; Tables 2-4; standardized conditions
Protocol: General information—Biological Assays. Methicillin-resistant and methicillin sensitive Staphylococcus aureus (MRSA and MSSA respectively) strains were obtained from the Laboratory of Professor Christian Melander (NCSU) (ATCC BAA 44 and 33591) and Dr. Jessica Gilbertie (ATCC 25923). Bacteria were kept in frozen stocks on glycerol at −80° C. until use. Bacteria was streaked onto tryptic-soy agar for colony isolation. Mueller-Hinton broth (MHB, 211443-BD), tryptic soy broth (TSB, Remel: R455052) and D-glucose (CAS: 492-62-6) were purchased from Fisher Scientific. Tryptic soy agar (TSA, cat. #22091) and Linezolid (cat. #P70014) were purchased from Sigma-Aldrich. Bacteria for biofilm inhibition were cultured overnight in TSB-G (tryptic soy broth with 0.5% glucose supplement) in 96 well plates. All assays were run in duplicate and repeated at least two separate times for MIC assays and at least three separate times for biofilm inhibition. All compounds were dissolved in molecular biology grade DMSO as 10 mM stock solutions. Optical densities were measured using a Thermo Scientific Genesys 20 spectrophotometer. Data for biofilm inhibition were collected using a BioTek ELx808 Microplate Reader. All graphs were generated and analyzed using GraphPad Prism 7.
Broth microdilution method for determination of minimum inhibitory concentrations. As prescribed by the Clinical and Laboratory Standards Institute (CLSI) M07-A8, Vol. 29 (2) MSSA (ATCC 25923) and MRSA (ATCC BAA 44 and 33591) was grown in MHB for 6-8 h; this culture was used to inoculate fresh MHB (5×10^5 CFU/mL). The resulting bacterial suspension was aliquoted (1 mL) into 1.5 mL Eppendorf tubes and compound was added from a 10 mM DMSO stock to achieve the desired initial starting concentration (typically 128 μg/mL). Linezolid (from a 10 mM DMSO stock) was used as a positive control. Inoculated media not treated with compound served as the negative control. The MIC was determined by microbroth dilution following the CLSI guidelines. The MIC was defined as the lowest concentration of antibiotic with no visible growth. The plate was sealed and incubated under stationary conditions at 37° C.
The antimicrobial activity of Compounds 1-15 was assessed initially against MSSA (ATCC 25923) and MRSA (ATCC 33591) strains. It was observed that almost all these compounds precipitated in aqueous solution at concentrations equal or higher than 8-16 μg/mL. In order to obtain preliminary results on the antimicrobial activity for these compounds, the standard conditions of the antimicrobial assays used where modified to favor the water solubility of these compounds.

[3] = tested on: MSSA (ATCC 25923); assay: Broth microdilution MIC, MSSA ATCC 25923; details: Staphylococcus aureus
[4] = Tables 3-4, standardized conditions, read-out: MIC (S. aureus 29213)
[5] = Table 2, standardized conditions, read-out: MIC (S. aureus 25913)
[6] = Tables 2-4, standardized conditions, read-out: MIC (S. aureus 25923)

MIC [1, 4] [µg/mL]	MIC [2] [µg/mL]	MIC [1, 5] [µg/mL]	MIC [3, 6] [µg/mL]	MIC ([3]; antibiotic alone, read-out: MIC value against MSSA ATCC 25923) [µg/mL]	SMILES
8 (≈ 15.9 µM)	8 (≈ 15.9 µM)				O=C1C(O)=C(c2ccc(C(F)(F)F)cc2)C([C@H](O)c2ccccc2)N1c1ccc(Br)cc1 (stereo partly drawn) [Compound 47, 1-(4-Bromophenyl)-3-hydroxy-5-((R)-hydroxy(phenyl)methyl)-4-(4-(trifluoromethyl)phenyl)-1,5-dihydro-2H-pyrrol-2-one]
128 (≈ 266 µM)	> 128		> 128		O=C1C(O)=C(c2ccc(C(F)(F)F)cc2)C(c2cccs2)N1c1ccc(Br)cc1 (centres unmarked) [Compound 45, 1-(4-Bromophenyl)-3-hydroxy-5-(thiophen-2-yl)-4-(4-(trifluoromethyl)phenyl)-1,5-dihydro-2H-pyrrol-2-one]
> 128	> 128		> 128		O=C1C(O)=C(c2ccc(C(F)(F)F)cc2)C(Cc2ccccc2)N1c1ccc(Br)cc1 (centres unmarked) [Compound 46, 5-Benzyl-1-(4-bromophenyl)-3-hydroxy-4-(4-(trifluoromethyl)phenyl)-1,5-dihydro-2H-pyrrol-2-one]
> 128	> 128		> 128		COc1ccc(N2C(=O)C(O)=C(c3ccc(C(F)(F)F)cc3)C2[C@H](O)c2ccccc2)cc1 (stereo partly drawn) [Compound 52, 3-Hydroxy-5-((R)-hydroxy(phenyl)methyl)-1-(4-methoxyphenyl)-4-(4-(trifluoromethyl)phenyl)-1,5-dihydro-2H-pyrrol-2-one]
16 (≈ 31.7 µM)	32 (≈ 63.5 µM)		32 to 64 (≈ 63.5 to 127 µM)		O=C1C(O)=C(c2ccc(C(F)(F)F)cc2)C([C@@H](O)c2ccccc2)N1c1ccc(Br)cc1 (stereo partly drawn) [Compound 48, 1-(4-Bromophenyl)-3-hydroxy-5-((S)-hydroxy(phenyl)methyl)-4-(4-(trifluoromethyl)phenyl)-1,5-dihydro-2H-pyrrol-2-one]
2 (≈ 3.63 µM)	4 (≈ 7.26 µM)		2 to 4 (≈ 3.63 to 7.26 µM)		O=C1C(O)=C(c2ccc(C(F)(F)F)cc2)C([C@H](O)c2ccccc2)N1c1ccc(I)cc1 (stereo partly drawn) [Compound 55, 3-Hydroxy-5-((R)-hydroxy(phenyl)methyl)-1-(4-iodophenyl)-4-(4-(trifluoromethyl)phenyl)-1,5-dihydro-2H-pyrrol-2-one]
128 (≈ 289 µM)	128 (≈ 289 µM)		16 (≈ 36.1 µM)		O=C1C(O)=C(c2ccc(C(F)(F)F)cc2)C([C@H](O)c2ccccc2)N1c1ccc(F)cc1 (stereo partly drawn) [Compound 53, 1-(4-Fluorophenyl)-3-hydroxy-5-((R)-hydroxy(phenyl)methyl)-4-(4-(trifluoromethyl)phenyl)-1,5-dihydro-2H-pyrrol-2-one]

Second part, the molecule before the results:

SMILES	MIC [1, 4] [µg/mL]	MIC [2] [µg/mL]	MIC [1, 5] [µg/mL]	MIC [3, 6] [µg/mL]	MIC ([3]; antibiotic alone, read-out: MIC value against MSSA ATCC 25923) [µg/mL]
CCC1C(c2ccc(C(F)(F)F)cc2)=C(O)C(=O)N1CCOCCOCCOCCN1C(=O)C(O)=C(c2ccc(C(F)(F)F)cc2)C1CC (centres unmarked) [Compound 31, 1,1′-(((Oxybis(ethane-2,1-diyl))bis(oxy))bis(ethane-2,1-diyl))bis(5-ethyl-3-hydroxy-4-(4-(trifluoromethyl)phenyl)-1,5-dihydro-2H-pyrrol-2-one)]		> 128	> 128	> 128	
CCC1C(c2ccc(C(F)(F)F)cc2)=C(O)C(=O)N1CCOCCN (centres unmarked) [Compound 21, 1-(2-(2-Aminoethoxy)ethyl)-5-ethyl-3-hydroxy-4-(4-(trifluoromethyl)phenyl)-1,5-dihydro-2H-pyrrol-2-one]		> 128	> 128	> 128	
CCC1C(c2ccc(C(F)(F)F)cc2)=C(O)C(=O)N1CCOCCOCCOCCN (centres unmarked) [Compound 22, 1-(2-(2-(2-(2-Aminoethoxy)ethoxy)ethoxy)ethyl)-5-ethyl-3-hydroxy-4-(4-(trifluoromethyl)phenyl)-1,5-dihydro-2H-pyrrol-2-one]		> 128	> 128	> 128	
CCC1C(c2ccc(C(F)(F)F)cc2)=C(O)C(=O)N1CCOCCN1C(=O)C(O)=C(c2ccc(C(F)(F)F)cc2)C1CC (centres unmarked) [Compound 30, 1,1′-(Oxybis(ethane-2,1-diyl))bis(5-ethyl-3-hydroxy-4-(4-(trifluoromethyl)phenyl)-1,5-dihydro-2H-pyrrol-2-one)]		> 128	> 128	> 128	
CCC1C(c2ccc(C(F)(F)F)cc2)=C(O)C(=O)N1CCCCCCN1C(=O)C(O)=C(c2ccc(C(F)(F)F)cc2)C1CC (centres unmarked) [Compound 27, 1,1′-(Hexane-1,6-diyl)bis(5-ethyl-3-hydroxy-4-(4-(trifluoromethyl)phenyl)-1,5-dihydro-2H-pyrrol-2-one)]		> 128	> 128	> 128	
CCC1C(c2ccc(C(F)(F)F)cc2)=C(O)C(=O)N1CCCCCCN (centres unmarked) [Compound 18, 1-(6-Aminohexyl)-5-ethyl-3-hydroxy-4-(4-(trifluoromethyl)phenyl)-1,5-dihydro-2H-pyrrol-2-one]		> 128	> 128	> 128	
CCC1C(c2ccc(C(F)(F)F)cc2)=C(O)C(=O)N1CCN(CCN)CCN (centres unmarked) [Compound 38, 1-(2-(bis(2-aminoethyl)amino)ethyl)-5-ethyl-3-hydroxy-4-(4-(trifluoromethyl)phenyl)-1,5-dihydro-2H-pyrrol-2-one]	64 (≈ 160 µM)	64 (≈ 160 µM)		64 (≈ 160 µM)	
CCC1C(c2ccc(C(F)(F)F)cc2)=C(O)C(=O)N1CCCCN (centres unmarked) [Compound 17, 1-(4-Aminobutyl)-5-ethyl-3-hydroxy-4-(4-(trifluoromethyl)phenyl)-1,5-dihydro-2H-pyrrol-2-one]		> 128	> 128	> 128	
CC1C(c2ccc(C(F)(F)F)cc2)=C(O)C(=O)N1c1ccc(Br)cc1 (centres unmarked) [Compound 41, 1-(4-Bromophenyl)-3-hydroxy-5-methyl-4-(4-(trifluoromethyl)phenyl)-1,5-dihydro-2H-pyrrol-2-one]	> 128	32 (≈ 77.6 µM)		> 128	
CCC1C(c2ccc(C(F)(F)F)cc2)=C(O)C(=O)N1CCSCCN1C(=O)C(O)=C(c2ccc(C(F)(F)F)cc2)C1CC (centres unmarked) [Compound 37, 1,1′-(thiobis(ethane-2,1-diyl))bis(5-ethyl-3-hydroxy-4-(4-(trifluoromethyl)phenyl)-1,5-dihydro-2H-pyrrol-2-one)]	> 256	> 256		> 256	
CCC1C(c2ccc(C(F)(F)F)cc2)=C(O)C(=O)N1c1ccc(Br)cc1 (centres unmarked) [Compound 42, 1-(4-Bromophenyl)-5-ethyl-3-hydroxy-4-(4-(trifluoromethyl)phenyl)-1,5-dihydro-2H-pyrrol-2-one]	> 128	> 128		> 128	
CCC1C(c2ccc(C(F)(F)F)cc2)=C(O)C(=O)N1CCCCN1C(=O)C(O)=C(c2ccc(C(F)(F)F)cc2)C1CC (centres unmarked) [Compound 26, 1,1′-(Butane-1,4-diyl)bis(5-ethyl-3-hydroxy-4-(4-(trifluoromethyl)phenyl)-1,5-dihydro-2H-pyrrol-2-one)]		> 128	> 128	> 128	
CCC1C(c2ccc(C(F)(F)F)cc2)=C(O)C(=O)N1CCN(CCN1C(=O)C(O)=C(c2ccc(C(F)(F)F)cc2)C1CC)CCN1C(=O)C(O)=C(c2ccc(C(F)(F)F)cc2)C1CC (centres unmarked) [Compound 40, 1,1′,1″-(nitrilotris(ethane-2,1-diyl))tris(5-ethyl-3-hydroxy-4-(4-(trifluoromethyl)phenyl)-1,5-dihydro-2H-pyrrol-2-one)]	> 128	> 128		> 128	
CCC1C(c2ccc(C(F)(F)F)cc2)=C(O)C(=O)N1CCSCCN (centres unmarked) [Compound 36]	> 128	> 128		> 128	
CCC1C(c2ccc(C(F)(F)F)cc2)=C(O)C(=O)N1CCNCCNCCNCCN (centres unmarked) [Compound 34]	> 128	> 128		> 128	
O=C(O)c1cn(C2CC2)c2cc(N3CCNCC3)c(F)cc2c1=O [Ciprofloxacin, ciprofloxacin, reference compound]					0.5 (≈ 1.51 µM)
CCC1C(c2ccc(C(F)(F)F)cc2)=C(O)C(=O)N1CCCNCCCCNCCCN1C(=O)C(O)=C(c2ccc(C(F)(F)F)cc2)C1CC (centres unmarked) [Compound 33, 1,1′-((Butane-1,4-diylbis(azanediyl))bis(propane-3,1-diyl))bis(5-ethyl-3-hydroxy-4-(4-(trifluoromethyl)phenyl)-1,5-dihydro-2H-pyrrol-2-one)]			4 (≈ 5.63 µM)	4 (≈ 5.63 µM)	
